Measurements taken from ChEMBL document CHEMBL4000195, “Design and synthesis of novel 7-aminosubstituted pyrido[2,3-b]pyrazines exhibiting anti-breast cancer activity” (Eur J Med Chem, 2017).
Active and inactive are the calls of the source. The calls are words filed in the database; no cut-off is given here.

Key:
MCF7 [1] = assay: Cytotoxicity against human MCF7 cells by MTT assay; format: functional, cell-based
SK-BR-3 = assay: Cytotoxicity against human SKBR3 cells by MTT assay; format: functional, cell-based
MDA-MB-231 [2] = assay: Cytotoxicity against human MDA-MB-231 cells by MTT assay; format: functional, cell-based
HCC1954 [3] = assay: Cytotoxicity against human HCC1954 cells by MTT assay; format: functional, cell-based
HCC1954 [4] = assay: Anti-tumor activity against HER2-amplified human HCC1954 cells xenografted in NOD/SCID mouse assessed as tumor size at 10 mg/kg, ip administered once daily for 18 days measured after 1 hr last dose (reference value: 497 +/- 82 mm3); format: functional
T47D [5] = assay: Cytotoxicity against human T47D cells by MTT assay; format: functional, cell-based
[6] = target: Mast/stem cell growth factor receptor Kit (Homo sapiens) (UniProt P10721); assay: Inhibition of recombinant human GST-tagged KIT (544-end residues) transphosphorylation activity expressed in baculovirus infected Sf9 cells using poly[Glu:Tyr] (4:1) as substrate after 60 mins
[7] = Tmax in NOD/SCID mouse at 0.5 mg/kg, po administered as single dose by LC-MS/MS method; format: ADME, organism-based; details: in vivo
T47D [8] = assay: Cytotoxicity against human T47D cells at 10 uM by MTT assay; format: functional
[9] = target: Receptor-type tyrosine-protein kinase FLT3 (Homo sapiens) (UniProt P36888); assay: Inhibition of recombinant human GST-tagged FLT3 (571 to 993 residues) transphosphorylation activity expressed in baculovirus infected Sf9 cells using poly[Glu:Tyr] (4:1) as substrate after 60 mins
[10] = AUC (0 to 8 hrs) in NOD/SCID mouse at 0.5 mg/kg, po administered as single dose by LC-MS/MS method; format: ADME, organism-based; parameters: time < 8 hr, dose 0.5 mg/kg, route oral; details: in vivo
[11] = target: Dual specificity tyrosine-phosphorylation-regulated kinase 1A (Rattus norvegicus) (UniProt Q63470); assay: Inhibition of rat DYRK1A using myelin basic protein as substrate in presence of [gamma33P]ATP after 30 mins by scintillation counting method
Mus musculus [12] = assay: Toxicity in NOD/SCID mouse assessed as phenotypic changes at 0.5 mg/kg, ip administered as single dose; format: organism-based; details: in vivo
MCF7 [13] = assay: Cytotoxicity against human MCF7 cells at 10 uM by MTT assay; format: functional
[14] = target: Phosphatidylinositol 4,5-bisphosphate 3-kinase catalytic subunit alpha isoform (Homo sapiens, UniProt P42336); assay: Inhibition of PI3Kalpha catalytic domain (unknown origin) using PIP2 liposomes as substrate in presence of biotin-labeled PIP3 and GST-GRP1-PH by streptavidin-HRP based assays
[15] = target: Vascular endothelial growth factor receptor 2 (Homo sapiens) (UniProt P35968); assay: Inhibition of recombinant human GST-tagged VEGFR-2 (789-end residues) transphosphorylation activity expressed in baculovirus infected Sf9 cells using poly[Glu:Tyr] (4:1) as substrate after 60 mins
T47D [16] = assay: Cytotoxicity against human T47D cells at 5 uM by MTT assay; format: functional
HCC1954 [17] = assay: Cytotoxicity against human HCC1954 cells at 10 uM by MTT assay; format: functional
[18] = Cmax in NOD/SCID mouse at 0.5 mg/kg, ip administered as single dose by LC-MS/MS method; format: ADME, organism-based; parameters: dose 0.5 mg/kg, route intraperitoneal; details: in vivo
[19] = target: Cyclin-dependent kinase 5/CDK5 activator 1 (Homo sapiens) (UniProt Q00535+Q15078); assay: Inhibition of human CDK5/p25 using histone H1 as substrate in presence of [gamma33P]ATP after 30 mins by scintillation counting method; format: protein-complex assay
MCF7 [20] = assay: Cytotoxicity against human MCF7 cells at 5 uM by MTT assay; format: functional
MDA-MB-231 [21] = assay: Cytotoxicity against human MDA-MB-231 cells at 10 uM by MTT assay; format: functional
[22] = target: Aurora kinase B/Inner centromere protein (Homo sapiens) (UniProt Q96GD4+Q9NQS7); assay: Inhibition of human AURKB/INCENP; format: protein-complex assay
Mus musculus [23] = assay: Toxicity in NOD/SCID mouse assessed as phenotypic changes at 0.5 mg/kg, po administered as single dose; format: organism-based; details: in vivo
[24] = target: Dual specificity protein kinase CLK1 (Mus musculus) (UniProt P22518); assay: Inhibition of mouse CLK1
[25] = AUC (0 to 8 hrs) in NOD/SCID mouse at 0.5 mg/kg, ip administered as single dose by LC-MS/MS method; format: ADME, organism-based; parameters: dose 0.5 mg/kg, time < 8 hr, route intraperitoneal; details: in vivo
[26] = target: T1, Serine/threonine-protein kinase haspin (Homo sapiens) (UniProt Q8TF76); assay: Inhibition of human HASPIN
T1 sequence (whole entry): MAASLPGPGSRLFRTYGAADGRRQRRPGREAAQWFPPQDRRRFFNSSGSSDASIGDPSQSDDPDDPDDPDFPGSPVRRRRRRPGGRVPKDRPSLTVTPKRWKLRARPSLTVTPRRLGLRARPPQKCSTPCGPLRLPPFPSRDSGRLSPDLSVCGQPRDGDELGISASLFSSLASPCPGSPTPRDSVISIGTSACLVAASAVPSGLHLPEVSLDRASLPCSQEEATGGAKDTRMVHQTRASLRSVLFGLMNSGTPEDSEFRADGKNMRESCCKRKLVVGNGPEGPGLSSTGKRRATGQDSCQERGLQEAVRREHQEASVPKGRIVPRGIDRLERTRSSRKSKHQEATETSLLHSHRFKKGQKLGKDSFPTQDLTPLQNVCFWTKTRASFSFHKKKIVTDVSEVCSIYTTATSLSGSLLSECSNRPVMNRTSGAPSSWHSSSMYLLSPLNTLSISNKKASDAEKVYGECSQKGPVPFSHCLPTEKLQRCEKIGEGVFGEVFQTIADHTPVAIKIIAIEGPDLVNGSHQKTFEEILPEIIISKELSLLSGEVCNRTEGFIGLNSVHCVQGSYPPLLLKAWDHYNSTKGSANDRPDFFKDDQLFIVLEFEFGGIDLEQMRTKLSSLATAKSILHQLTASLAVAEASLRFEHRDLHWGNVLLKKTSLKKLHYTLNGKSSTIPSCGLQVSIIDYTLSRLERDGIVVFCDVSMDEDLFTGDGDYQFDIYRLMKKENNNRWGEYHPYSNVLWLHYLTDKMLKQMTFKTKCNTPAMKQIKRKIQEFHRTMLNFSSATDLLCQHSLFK

[27] = target: Glycogen synthase kinase-3 (Sus scrofa) (UniProt B2LUN4+I6LNT8); assay: Inhibition of pig GSK3alpha/beta using GS-1 as substrate in presence of [gamma33P]ATP after 30 mins by scintillation counting method
MDA-MB-231 [28] = assay: Cytotoxicity against human MDA-MB-231 cells at 5 uM by MTT assay; format: functional
[29] = Tmax in NOD/SCID mouse at 0.5 mg/kg, ip administered as single dose by LC-MS/MS method; format: ADME, organism-based; details: in vivo
[30] = Cmax in NOD/SCID mouse at 0.5 mg/kg, po administered as single dose by LC-MS/MS method; format: ADME, organism-based; parameters: dose 0.5 mg/kg, route oral; details: in vivo
[31] = target: Receptor-interacting serine/threonine-protein kinase 3 (Homo sapiens) (UniProt Q9Y572); assay: Inhibition of human RIPK3
Sus scrofa = organism: Sus scrofa; assay: Inhibition of pig CK1delta/epsilon
[32] = target: Platelet-derived growth factor receptor beta (Homo sapiens) (UniProt P09619); assay: Inhibition of recombinant human GST-tagged PDGFR-beta (557-end residues) transphosphorylation activity expressed in baculovirus infected Sf9 cells using poly[Glu:Tyr] (4:1) as substrate after 60 mins
HCC1954 [33] = assay: Cytotoxicity against human HCC1954 cells at 5 uM by MTT assay; format: functional

Chain of Mast/stem cell growth factor receptor Kit (Homo sapiens) (P10721 whole entry): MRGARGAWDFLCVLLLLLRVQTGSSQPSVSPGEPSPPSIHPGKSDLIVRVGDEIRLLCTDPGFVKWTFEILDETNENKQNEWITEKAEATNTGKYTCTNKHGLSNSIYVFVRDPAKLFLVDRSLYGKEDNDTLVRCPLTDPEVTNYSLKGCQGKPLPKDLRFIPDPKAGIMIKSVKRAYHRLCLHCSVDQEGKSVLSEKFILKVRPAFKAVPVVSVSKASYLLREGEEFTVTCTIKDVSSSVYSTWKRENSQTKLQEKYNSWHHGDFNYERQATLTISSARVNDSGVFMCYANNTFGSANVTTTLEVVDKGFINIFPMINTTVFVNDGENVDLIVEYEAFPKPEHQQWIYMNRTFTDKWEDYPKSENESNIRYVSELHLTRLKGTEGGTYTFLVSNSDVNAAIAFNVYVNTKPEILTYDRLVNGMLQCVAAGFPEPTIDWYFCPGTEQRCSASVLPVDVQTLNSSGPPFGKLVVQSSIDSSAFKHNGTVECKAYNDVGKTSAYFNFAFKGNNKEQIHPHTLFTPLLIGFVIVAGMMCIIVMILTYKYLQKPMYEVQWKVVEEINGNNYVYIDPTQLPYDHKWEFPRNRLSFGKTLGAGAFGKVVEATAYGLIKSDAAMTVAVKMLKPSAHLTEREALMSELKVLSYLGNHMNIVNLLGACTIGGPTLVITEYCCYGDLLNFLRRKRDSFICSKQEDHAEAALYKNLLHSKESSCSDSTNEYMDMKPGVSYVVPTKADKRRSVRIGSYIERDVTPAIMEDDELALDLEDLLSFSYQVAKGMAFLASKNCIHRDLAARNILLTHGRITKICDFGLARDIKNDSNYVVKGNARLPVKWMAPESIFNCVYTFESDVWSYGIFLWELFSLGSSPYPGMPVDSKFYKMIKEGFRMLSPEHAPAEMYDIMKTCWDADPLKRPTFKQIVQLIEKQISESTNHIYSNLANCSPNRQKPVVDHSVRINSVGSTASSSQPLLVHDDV
Chain of Dual specificity protein kinase CLK1 (Mus musculus) (P22518 whole entry, looked up): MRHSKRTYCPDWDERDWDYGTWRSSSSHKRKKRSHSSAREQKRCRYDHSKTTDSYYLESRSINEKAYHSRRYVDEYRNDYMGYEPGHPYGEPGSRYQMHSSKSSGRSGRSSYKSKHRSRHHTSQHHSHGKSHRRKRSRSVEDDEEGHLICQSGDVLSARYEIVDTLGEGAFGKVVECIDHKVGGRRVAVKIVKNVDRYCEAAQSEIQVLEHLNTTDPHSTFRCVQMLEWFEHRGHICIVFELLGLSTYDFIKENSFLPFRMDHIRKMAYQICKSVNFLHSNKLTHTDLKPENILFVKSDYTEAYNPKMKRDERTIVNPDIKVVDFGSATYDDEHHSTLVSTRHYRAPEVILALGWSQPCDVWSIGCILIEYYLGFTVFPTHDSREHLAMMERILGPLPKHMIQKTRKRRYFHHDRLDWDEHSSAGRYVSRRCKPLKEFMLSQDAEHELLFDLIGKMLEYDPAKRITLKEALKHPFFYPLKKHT
Chain of Cyclin-dependent kinase 5/CDK5 activator 1 (Homo sapiens) (Q00535 whole entry): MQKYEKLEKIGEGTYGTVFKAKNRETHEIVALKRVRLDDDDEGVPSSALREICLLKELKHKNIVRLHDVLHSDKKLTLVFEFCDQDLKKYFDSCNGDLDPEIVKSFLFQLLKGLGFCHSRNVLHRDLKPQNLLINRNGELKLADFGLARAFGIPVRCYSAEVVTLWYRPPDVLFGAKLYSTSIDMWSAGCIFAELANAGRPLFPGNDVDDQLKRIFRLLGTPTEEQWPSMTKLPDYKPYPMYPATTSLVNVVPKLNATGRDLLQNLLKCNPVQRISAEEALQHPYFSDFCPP
Chain of Cyclin-dependent kinase 5/CDK5 activator 1 (Homo sapiens) (Q15078 99-307 partner limits assumed): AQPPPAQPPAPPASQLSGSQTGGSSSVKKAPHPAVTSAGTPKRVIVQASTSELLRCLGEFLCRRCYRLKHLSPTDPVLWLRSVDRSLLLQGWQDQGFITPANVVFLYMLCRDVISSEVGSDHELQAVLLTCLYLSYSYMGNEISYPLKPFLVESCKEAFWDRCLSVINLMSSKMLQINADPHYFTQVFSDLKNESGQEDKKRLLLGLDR
Chain of Receptor-interacting serine/threonine-protein kinase 3 (Homo sapiens) (Q9Y572 whole entry, looked up): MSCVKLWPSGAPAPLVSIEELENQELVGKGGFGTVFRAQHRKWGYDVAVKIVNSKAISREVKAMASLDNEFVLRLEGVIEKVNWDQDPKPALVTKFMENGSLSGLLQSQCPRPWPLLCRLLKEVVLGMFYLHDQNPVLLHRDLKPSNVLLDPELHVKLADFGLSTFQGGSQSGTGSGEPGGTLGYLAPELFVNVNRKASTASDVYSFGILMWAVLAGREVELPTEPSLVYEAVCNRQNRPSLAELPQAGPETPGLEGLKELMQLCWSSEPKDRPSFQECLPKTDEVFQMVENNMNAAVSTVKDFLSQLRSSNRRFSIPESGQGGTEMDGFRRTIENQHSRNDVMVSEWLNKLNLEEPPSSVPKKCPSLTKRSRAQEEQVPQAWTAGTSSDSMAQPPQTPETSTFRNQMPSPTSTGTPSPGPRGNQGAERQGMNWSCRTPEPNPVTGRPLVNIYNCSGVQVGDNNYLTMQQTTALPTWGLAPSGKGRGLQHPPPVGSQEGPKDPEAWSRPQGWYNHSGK
Chain of Platelet-derived growth factor receptor beta (Homo sapiens) (P09619 whole entry): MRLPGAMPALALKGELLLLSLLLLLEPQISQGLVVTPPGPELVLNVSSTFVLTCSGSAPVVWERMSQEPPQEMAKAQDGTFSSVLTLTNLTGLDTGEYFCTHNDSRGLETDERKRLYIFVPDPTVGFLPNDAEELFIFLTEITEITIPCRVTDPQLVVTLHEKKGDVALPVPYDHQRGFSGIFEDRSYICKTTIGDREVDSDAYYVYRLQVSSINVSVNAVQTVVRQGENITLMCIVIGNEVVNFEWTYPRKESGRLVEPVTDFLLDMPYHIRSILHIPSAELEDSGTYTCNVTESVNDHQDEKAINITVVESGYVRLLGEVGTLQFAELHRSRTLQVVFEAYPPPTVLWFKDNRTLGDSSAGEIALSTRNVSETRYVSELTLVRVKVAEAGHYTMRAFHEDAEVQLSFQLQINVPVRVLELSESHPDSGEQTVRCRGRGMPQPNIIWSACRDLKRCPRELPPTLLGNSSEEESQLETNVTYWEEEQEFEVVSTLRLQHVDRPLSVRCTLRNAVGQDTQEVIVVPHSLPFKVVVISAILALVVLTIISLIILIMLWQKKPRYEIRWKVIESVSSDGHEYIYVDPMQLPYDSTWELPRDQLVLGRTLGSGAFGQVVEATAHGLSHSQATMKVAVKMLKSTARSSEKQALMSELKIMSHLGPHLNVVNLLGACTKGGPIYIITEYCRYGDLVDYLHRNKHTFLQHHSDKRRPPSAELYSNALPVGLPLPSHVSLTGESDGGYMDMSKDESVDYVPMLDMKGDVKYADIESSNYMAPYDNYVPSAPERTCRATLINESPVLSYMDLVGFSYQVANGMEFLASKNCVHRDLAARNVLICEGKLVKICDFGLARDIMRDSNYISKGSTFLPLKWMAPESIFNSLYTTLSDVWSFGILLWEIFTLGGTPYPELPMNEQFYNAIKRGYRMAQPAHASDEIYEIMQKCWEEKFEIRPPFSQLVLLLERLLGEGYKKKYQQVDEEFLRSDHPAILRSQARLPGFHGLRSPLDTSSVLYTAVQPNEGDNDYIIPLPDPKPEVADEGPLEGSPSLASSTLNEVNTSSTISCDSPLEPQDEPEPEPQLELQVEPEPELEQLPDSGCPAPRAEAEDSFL
Chain of Phosphatidylinositol 4,5-bisphosphate 3-kinase catalytic subunit alpha isoform (P42336 whole entry, the tested form may be a part, canonical isoform): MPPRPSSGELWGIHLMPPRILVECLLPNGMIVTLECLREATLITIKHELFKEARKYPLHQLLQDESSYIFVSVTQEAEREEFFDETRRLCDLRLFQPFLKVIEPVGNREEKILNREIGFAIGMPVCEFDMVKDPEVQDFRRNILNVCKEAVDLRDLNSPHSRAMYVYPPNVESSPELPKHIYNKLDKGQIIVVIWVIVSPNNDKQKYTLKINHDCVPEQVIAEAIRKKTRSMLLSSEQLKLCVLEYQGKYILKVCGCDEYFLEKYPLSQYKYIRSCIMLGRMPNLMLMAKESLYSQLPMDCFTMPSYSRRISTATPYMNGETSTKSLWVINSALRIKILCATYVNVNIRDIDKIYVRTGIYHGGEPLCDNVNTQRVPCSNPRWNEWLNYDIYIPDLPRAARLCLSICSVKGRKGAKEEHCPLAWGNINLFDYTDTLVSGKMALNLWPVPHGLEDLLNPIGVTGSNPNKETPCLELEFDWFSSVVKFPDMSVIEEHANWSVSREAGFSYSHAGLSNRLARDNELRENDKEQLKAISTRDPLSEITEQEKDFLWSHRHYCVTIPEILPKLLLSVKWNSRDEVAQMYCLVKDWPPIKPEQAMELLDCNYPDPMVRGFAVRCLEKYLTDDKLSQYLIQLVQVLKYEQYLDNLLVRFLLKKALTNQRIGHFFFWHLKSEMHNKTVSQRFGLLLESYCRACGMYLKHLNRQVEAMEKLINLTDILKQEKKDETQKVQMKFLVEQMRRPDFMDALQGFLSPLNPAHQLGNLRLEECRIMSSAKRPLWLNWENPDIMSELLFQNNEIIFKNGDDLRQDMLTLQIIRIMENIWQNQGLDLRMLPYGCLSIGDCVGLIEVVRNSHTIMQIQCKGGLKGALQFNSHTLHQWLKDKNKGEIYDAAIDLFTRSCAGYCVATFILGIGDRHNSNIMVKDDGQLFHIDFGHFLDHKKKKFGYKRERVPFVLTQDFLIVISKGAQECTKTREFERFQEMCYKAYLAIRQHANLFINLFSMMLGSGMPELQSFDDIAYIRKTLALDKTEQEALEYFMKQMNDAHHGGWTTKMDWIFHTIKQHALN

Row | inhibition [6] | inhibition [9] | inhibition [11] | inhibition [14] | inhibition [15] | inhibition [19] | inhibition [22] | inhibition [24] | inhibition [26] | SMILES | IC50 (MCF7 [1]) | IC50 (SK-BR-3) | IC50 (MDA-MB-231 [2]) | IC50 (HCC1954 [3]) | IC50 (T47D [5]) | Activity (T47D [8]) | Activity (MCF7 [13]) | Activity (T47D [16]) | Activity (HCC1954 [17]) | Activity (MCF7 [20]) | Activity (MDA-MB-231 [21]) | further results
1 | – | – | – | – | – | – | – | – | – | CS(=O)(=O)N1CCN(Cc2cc3nc(-c4cccc5[nH]ncc45)nc(N4CCOCC4)c3s2)CC1 [PICTILISIB] | 2 µM | 0.9 µM | > 30 µM | 1.3 µM | 1.2 µM | – | – | – | – | – | – | Activity (HCC1954 [4]): 350 mm3
2 | inactive | inactive | inactive | inactive | inactive | inactive | inactive | inactive | inactive | Cc1nc2nc(Sc3ccccc3)cnc2cc1NC(=O)c1ccccc1 | 4 µM | 3.7 µM | 4 µM | 4.5 µM | 1.5 µM | >50% | >50% | >50% | >50% | >50% | >50% | Tmax [7]: 15 min; AUC(0-t) at 8 h [10]: 0.43 µM·h; Activity (Mus musculus [12]): Non-Toxic; Cmax [18]: 520 nM; Activity (Mus musculus [23]): Non-Toxic; AUC(0-t) at 8 h [25]: 0.57 µM·h; inhibition [27]: inactive; Activity (MDA-MB-231 [28]): >50%; Tmax [29]: 30 min; Cmax [30]: 320 nM; inhibition [31]: inactive; inhibition (Sus scrofa): inactive; inhibition [32]: inactive; Activity (HCC1954 [33]): >50%
3 | inactive | inactive | inactive | inactive | inactive | inactive | inactive | inactive | inactive | Cc1nc2nc(Oc3ccccc3)cnc2cc1NC(=O)Nc1ccccc1 | 7 µM | 7.2 µM | 5.1 µM | 5.3 µM | 9.4 µM | >50% | >50% | >50% | >50% | >50% | >50% | inhibition [27]: inactive; Activity (MDA-MB-231 [28]): >50%; inhibition [31]: inactive; inhibition (Sus scrofa): inactive; inhibition [32]: inactive; Activity (HCC1954 [33]): >50%
